Experimental data reported in patent publication EP0874631B1, “USE OF VALACICLOVIR FOR THE MANUFACTURE OF A MEDICAMENT FOR THE TREATMENT OF GENITAL HERPES BY A SINGLE DAILY APPLICATION” (priority 1996, dated 1997).
Counter-ions that a name gives are not always drawn. Like-named read-outs stand apart in the source and are kept apart here.

Tests used:
Assay type in all cases: in vivo, human
recurrent genital herpes = test: open-label 1-year study of suppressive therapy in patients previously on chronic acyclovir suppression
Procedure: OBJECTIVE: To document the number of genital herpes outbreaks during a 1-year period of suppressive therapy with valaciclovir hydrochloride in patients previously receiving chronic suppressive therapy with acyclovir. METHODS: A total of 127 patients (81 Males, 46 Females) from 11 study sites enrolled in this open-label study. […] Upon discontinuation of acyclovir, patients received 500 mg valaciclovir hydrochloride once daily. For any genital herpes recurrence, patients self-initiated treatment with valaciclovir hydrochloride 500 mg twice daily for 5 days, then resumed once daily therapy. Patients documented recurrences in a diary and returned to the clinic every three months for drug safety and recurrence evaluation.

[1] = tested on: genital herpes simplex virus (HSV) infection; conditions: for recurrences experienced by placebo patients prevented or delayed / recurrences prevented or delayed: 52 weeks; for safety profiles (valaciclovir, aciclovir and placebo compared): in vivo
From the text: Objective: To determine the efficacy and safety of 4 doses of oral valaciclovir compared with aciclovir and placebo for the suppression of genital herpes in otherwise healthy patients.
Methods: This study was a multi-centre, international, six-arm, parallel group, randomised, double-blind comparison of the efficacy and safety of 4 doses of oral valaciclovir with oral aciclovir and placebo for the suppression of recurrent episodes of genital herpes simplex virus (HSV) infection in immunocompetent patients. A total of 1279 patients with a history of recurrent genital herpes were randomised into one of 6 treatment arms with a 2:2:2:2:2:1 treatment allocation and followed for 52 weeks. Patients visited the clinic at monthly intervals and on Days 1 and 5 of a genital HSV recurrence. Safety was assessed by adverse experience reporting at each visit and by clinical chemistry and haematology testing every 3 or 6 months respectively.
274 patients received 250 mg twice daily valaciclovir (reference example); 269 patients received 1000 mg once daily valaciclovir; 266 patients received 500 mg once daily valaciclovir; 269 patients received 250 mg once daily valaciclovir; 267 patients received 400 mg twice daily aciclovir; and 134 patients received placebo.

[2] = tested on: frequently recurrent genital herpes; test: double blind, placebo controlled multicentre clinical trial of once daily suppressive therapy; conditions: 500 mg once daily
Procedure: In another study once daily valaciclovir (as the hydrochloride salt), was evaluated as suppressive therapy in a double blind, placebo controlled multicentre clinical trial in otherwise healthy immunocompetent patients with frequently recurrent genital herpes. A total of 382 patients with a history of >8 genital herpes recurrences per year were randomised (3:1) to treatment with once daily valaciclovir (500 mg) or placebo for 16 weeks. Patients experiencing a recurrence discontinued double blind therapy and received open label episodic valaciclovir (500 mg twice daily) for 5 days. They then continued on open label daily valaciclovir, as did those completing the 16 week double blind phase of study without evidence of a breakthrough recurrence, for a total of 48 weeks. Patients were assessed 4-weekly (double blind phase) and every 8 weeks thereafter. The primary efficacy end-point was time to first genital herpes recurrence.

[3] = 400 mg twice daily, entire tenth study year of acyclovir suppression
[4] = 250 mg twice daily (reference example)

SMILES | mean quarterly recurrence free rate (recurrent genital herpes; [3]) | yearly recurrence free rate (recurrent genital herpes; [3]) | patients recurrence-free after 12 months ([1]; 400 mg twice daily) | recurrences experienced by placebo patients prevented or delayed ([1]; 400 mg twice daily) | safety profiles (valaciclovir, aciclovir and placebo compared) [1] | total recurrence free rate (recurrent genital herpes; 500 mg once daily, after six months of suppressive therapy (93 of 126 patients)) | patients remained free of recurrences (recurrent genital herpes; 500 mg once daily, after the first three months of suppressive therapy (102 of 126 patients)) | patients remained free of recurrences (recurrent genital herpes; 500 mg once daily, following the next three months of suppressive therapy (101 of 119 patients)) | tolerability (recurrent genital herpes; 500 mg once daily, for 6 months) | reduction in recurrence rate relative to placebo ([2]; 16 weeks, intent-to-treat population) | tolerability ([2]; adverse events infrequent and generally mild) | patients remained recurrence-free during the study period ([1]; 250 mg once daily, 12 months) | recurrences prevented or delayed ([1]; 250 mg once daily) | patients recurrence-free after 12 months [1, 4] | recurrences experienced by placebo patients prevented or delayed [1, 4] | patients recurrence-free at 12 months ([1]; 500 mg once daily) | recurrences prevented or delayed ([1]; 500 mg once daily) | patients recurrence-free after 12 months ([1]; 1000 mg once daily) | recurrences experienced by placebo patients prevented or delayed ([1]; 1000 mg once daily)
Nc1nc2c(ncn2COCCO)c(=O)[nH]1 [acyclovir, 9-[(2-hydroxyethoxy)methyl]guanine, reference compound] | 89% | 75% | approximately half | 78-79% | similar |  |  |  |  |  |  |  |  |  |  |  |  |  | 
CC(C)[C@H](N)C(=O)OCCOCn1cnc2c(=O)[nH]c(N)nc21 [valaciclovir hydrochloride, 2-[(2-amino-1,6-dihydro-6-oxo-9H-purin-9-yl)methoxy]ethyl-L-valinate hydrochloride] |  |  |  |  |  | 74% | 81% | 85% | well tolerated |  |  |  |  |  |  |  |  |  | 
CC(C)[C@H](N)C(=O)OCCOCn1cnc2c(=O)[nH]c(N)nc21 [valaciclovir, 2-[(2-amino-1,6-dihydro-6-oxo-9H-purin-9-yl)methoxy]ethyl L-valinate] |  |  |  |  | similar |  |  |  |  | 85% | well tolerated | 22% | 54% | approximately half | 78-79% | Forty | 71% | approximately half | 78-79%
